Test results from US10806726B2, “Methods of using indazole-3-carb oxamides and their use as Wnt/B-catenin signaling pathway inhibitors” (Samumed, LLC, priority 2016, dated 2020).

Legend:
[1] = system: TNFα production in THP-1 cells; assay: Cytokine Production Assay, LPS-induced TNFα in THP-1 cells; format: cell-based; conditions: Homo sapiens; THP-1, LPS 50 ng/mL 5 hours, 2 independent assays; read-out: average EC50, inhibition of TNFα production
Method: THP-1 cells were cultured in basal media with 1% FBS for 24 hours before the start of the assay. THP-1 cells were plated at 6×10e^4 cells/well and treated with DMSO (vehicle control) or compound 175 at 10 μM highest test concentration and 2 to 3.5-fold serial dilutions up to 8 concentrations (10, 3.5, 1, 0.5, 0.1, 0.035, 0.01, 0.005 μM). For the TNFα assay, 50 ng/mL of LPS was added to the wells after 2 hours to induce cytokine production, and cells were incubated for 5 hours at 37° C. For the IL6 assay, 500 ng/ml of LPS was added after 2 hours and cells were incubated for 22 hours at 37° C. Plates were spun in a centrifuge for 1 minute at 10,000 rpm and supernatants were collected for ELISA. Supernatants were diluted 1:1 for the TNFα assay and 1:4 for the IL6 assay using the assay medium. ELISA was performed using Human TNF-α ELISA MAX™ Deluxe (Catalog #430204, Biolegend, San Diego, Calif.) and Human IL-6 ELISA MAX™ Deluxe (Catalog #430504, Biolegend, San Diego, Calif.) kits. […] Following several washes to remove unbound avidin-HRP, the TMB substrate was added and the plates were read on the Cytation 3 plate reader (Biotek Inc., Winooski, Vt.) at an absorbance of 450 nm with correction at 570 nm. […] Inhibition profile and EC50 was calculated using Prism 5 (GraphPad Software Inc, La Jolla, Calif., USA). […]

[2] = system: collagenase-induced tendonitis of the Achilles tendon in Sprague Dawley rats; assay: Rat Tendinopathy Model (1), collagenase-induced, tendon histology scoring; format: in vivo; conditions: for tendon histology score: topical once daily 21 days, total score of 20
Method: Fifty (50 μl) of Collagenase Type IA (10 mg/ml in PBS, pH 7.4, approximately 469 units/mg) (Catalog # C5138, Sigma, St. Louis, Mo.) was injected into the Achilles tendon of both ankles near the osteotendinous junction of male Sprague Dawley CD® IGS rats (CRL, Inc.), using insulin syringes with 28.5 G needle.
Rats were divided into […] with 5 animals per group: Group 1 (sham injection); Group 2 (Collagenase-Vehicle); Group 3 (Collagenase-compound 175 10 mg/mL with 1% BA) and Group 4 (Collagenase-COMPOUND 175 10 mg/mL with 0.5% Tween 80). […] All rats were periodically observed for any pain, illnesses or abnormalities. At various time points, blood was collected for plasma in lithium heparin coated tubes by saphenous vein bleeding. For histology, rats were euthanized using isoflurane, tendons were isolated (n=6 tendons/group), fixed in 10% buffered formalin (Catalog # SF93-4, Fisher, Pittsburgh Pa.) and H & E histology staining was performed at a secondary site (Pacific Pathology, San Diego, Calif.). For biochemical analysis, tendons were isolated (n=4 tendons/group), flash frozen in liquid nitrogen and then stored at −80° C. for subsequent biochemical analysis (not reported).
There is biological variability in response to collagenase when injected directly into the tendons. […] Slides were viewed under an upright light microscope (EVOS AMEX-1200) at a 10× magnification and scored blinded using a 1-4 scoring system of severity: 1—representing severe damage and 4—representing normal tendon, for Linearity of the fiber structure, Shape of the tendon cells, Density of the tendon cells, Inflammation, and Hemorrhage for a total score of twenty (20) using a modification of that described previously (Urdzikova et al., 2014—see Table 3). […]
For tendon scoring, each section was analyzed following a 1-4 point scoring system as previously described (Urdzikova et al., 2014) with the exclusion of one variable, the Thickness of the epitenon, due to the difficulty in discerning the epitenon layer in histology sections. […]

[3] = system: Wnt-responsive promoter driving firefly luciferase in SW480 cells; assay: Wnt reporter (SP5 promoter-luciferase) screening assay in SW480 cells; format: cell-based; conditions: Homo sapiens, 24-40 h, top concentration ten micromolar
Summary of the method: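 SW480 (APC-mutant colon) cells stably transduced with lentiviral SP5-promoter (eight TCF/LEF sites) firefly luciferase, ~10,000 cells/well. Signals normalized to DMSO controls for EC50 fitting.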

EC50 [1]: 342 to 547 nM
EC50 [3]: 25 nM
Structure (SMILES): COc1ccc(NC(=O)c2n[nH]c3ccc(-c4cncc(CN5CCCCC5)c4)cc23)cn1 [compound 175, N-(6-Methoxypyridin-3-yl)-5-(5-(piperidin-1-ylmethyl)pyridin-3-yl)-1H-indazole-3-carboxamide]
blinded histology scoring of tendon injury and inflammation vs vehicle ([2]; 10 mg/ml with or without BA preservative, topical 21 days): significantly ameliorated collagenase-induced tendinopathy
tendon histology score ([2]; Group 3, 10 mg/mL with BA): 14.0 (±0.217)
tendon histology score ([2]; Group 4, 10 mg/mL without BA (0.5% Tween 80)): 12.2 (±0.284)
